Key:
[1] = tested on: cancer subjects with opioid-induced constipation (tumor disease progression); experiment: Pooled analysis of Study 1 and Study 2: adverse events of disease progression; type: in vivo, human
Text: As part of the routine adverse event (AE) evaluations filled out by all investigators in the studies described in Examples 1 and 2, AEs of tumor progression were tabulated. Both studies were randomized, placebo-controlled trials that involved a 2-week treatment period followed by a 2-week follow-up period. The enrolled subjects were advanced illness (incurable cancer or other end-stage disease) subjects with OIC who were receiving stable doses of laxatives and opioid analgesics. In the context of the study, a stable dose of opioid analgesics was defined as no reduction in the dose of opioid analgesic of ≥50% for at least three days before the first dose of MNTX. A stable dose of laxatives was defined as having a standing laxative order (and not PRN, or as-needed) for at least three days before the first dose of MNTX. A diagnosis of constipation was provided if the subject had (a) fewer than 3 bowel movements during the previous week by history and no clinically notable laxation in the 24 hours before the first dose of MNTX, or (b) no clinical notable laxation in the 48 hours before the first dose of MNTX. In Study 1 (Example 1), subjects received subcutaneous MNTX 0.15 mg/kg or placebo (PBO) every other day (QOD), and in Study 2 (Example 2) subjects received subcutaneous MNTX (8 mg or 12 mg based on body weight 38 to <62 kg or ≥62 kg, respectively) or placebo administered QOD. The 12 mg fixed dose was designed to correspond to the 0.15 mg/kg weight-based dose. Rescue-laxatives, enemas or manual disimpactions were not administered within 4 hours before or after each dose of MNTX. For the purpose of this analysis, only subjects with a cancer-related diagnosis were considered. For statistical significance testing, the Fisher's exact test was used (p<0.05).
Table 1 and FIG. 1 provide AEs of disease progression in the pooled analysis and for each individual study during the double-blind phase of the studies.
Furthermore, when the pool of MNTX-treated subjects across both studies was examined, there was a significant decrease in the percentage of subjects with disease progression between subjects who responded to MNTX treatment and those who were considered non-responders. A subject with laxation within 4 hours after two of the first four doses of MNTX was considered a responder.
For the analysis carried out in this Example and in Example 3, a subject with laxation occurring from 0-4 hours after two of the first four doses of MNTX was considered a MNTX responder or responsive subject. Data for placebo patients who elected to participate in the open-label MNTX treatment phase was collected from the first 4 doses of open-label treatment. Data for the MNTX-treated patients was collected from the first 4 doses of the double-blind phase of the study.

Lewis lung cancer model = settings: infusion of MNTX; cited from earlier work
[2] = Plasma levels after oral administration; type: in vivo
Description: Methylnaltrexone is rapidly absorbed after oral administration from the stomach and bowel. Initial plasma levels of the drug are seen within 5-10 minutes of the administration of non-enteric coated compound.

colectomy patients = settings: more than 500 colectomy patients, two randomized clinical trials; cited from earlier work
[3] = tested on: subjects with advanced medical illness and opioid-induced constipation; experiment: Study 2: double-blind, randomized, placebo-controlled study of subcutaneous MNTX (fixed dose); type: in vivo, human
Description: A double-blind, randomized, placebo-controlled study of subcutaneous MNTX was conducted in subjects with advanced medical illness and a current history of opioid-induced constipation. To satisfy eligibility criteria for enrollment, subjects were required to be on stable doses of laxatives and opioid analgesics. In the context of the study, a stable dose of opioid analgesics was defined as no reduction in the dose of opioid analgesic of ≥50% for at least three days before the first dose of MNTX. A stable dose of laxatives was defined as having a standing laxative order (and not PRN, or as-needed) for at least three days before the first dose of MNTX. A diagnosis of constipation was provided if the subject had (a) fewer than 3 bowel movements during the previous week by history and no clinically notable laxation in the 24 hours before the first dose of MNTX, or (b) no clinical notable laxation in the 48 hours before the first dose of MNTX.
Eligible subjects were randomized to receive MNTX or placebo every other day during a 14-day, double-blind period. Subjects weighing 38 kg to <62 kg received 0.4 mL SC MNTX (8 mg) or equal volume of placebo. Subjects weighing ≥62 kg received 0.6 mL SC MNTX (12 mg) or equal volume of placebo. Injections were administered subcutaneously in either the shoulder area, buttocks, abdomen, thighs or extremities, and rescue-laxatives, enemas or manual disimpactions were not administered within 4 hours before or after each dose of test article.
The endpoint assessed was the proportion of subjects with rescue-free laxation response within 4 hours after at least two of the first four doses. Two hundred and twenty-nine (229) subjects were enrolled and evaluated, including 151 patients with advanced cancers and 78 patients with other advanced illness (e.g., cardiovascular, pulmonary or neurologic disorders). Of which 229 subjects which enrolled, 113 were randomized to the placebo group and 116 were randomized to the MNTX treatment group. Of the patients who completed the double-blind phase, 142 (placebo 69, MNTX 73) elected to proceed with a 10-week open label phase of subcutaneous MNTX at PRN dosing.

C[N@+]1(CC2CC2)CC[C@]23c4c5ccc(O)c4O[C@H]2C(=O)CC[C@@]3(O)[C@H]1C5.[Br-] [MNTX, (R)—N-(cyclopropylmethyl) noroxymorphone methobromide]
Adverse Events of Disease Progression, n/N ([1]; Combined (Study 1 & Study 2), double-blind phase, cancer subjects): 16/116 | % Progression ([1]; MNTX Non-Responders): 22.0% | Disease Progression (number of subjects) ([1]; MNTX Non-Responders): 11 | No Disease Progression (number of subjects) ([1]; MNTX Non-Responders): 39 | % Progression ([1]; MNTX Responders): 7.6% | No Disease Progression (number of subjects) ([1]; MNTX Responders): 61 | Disease Progression (number of subjects) ([1]; MNTX Responders (laxation within 4 hours after two of the first four doses)): 5 | No Disease Progression (number of subjects) ([1]; MNTX Total): 100 | Disease Progression (number of subjects) ([1]; MNTX Total, pooled): 16 | Adverse Events of Disease Progression, % ([1]; Study 1, double-blind phase): (16.2%) | Adverse Events of Disease Progression, n/N ([1]; Study 1, double-blind phase): 6/37 | Adverse Events of Disease Progression, % ([1]; Study 2, double-blind phase): (12.7%) | Adverse Events of Disease Progression, n/N ([1]; Study 2, double-blind phase): 10/79 | reduction in the incidence of AE of disease progression versus placebo ([1]; pooled analysis): ~46% | tumor growth and metastasis (Lewis lung cancer model): dramatically reduced growth and metastasis | plasma levels with an enteric coating which prevents gastric absorption ([2]; enteric coated, oral): lower plasma levels | time to initial plasma levels after oral administration ([2]; non-enteric coated compound): 5 to 10 min | safety and perioperative analgesia (colectomy patients): safely given | subjects with rescue-free laxation response within 4 hours after at least 2 of the first 4 doses ([3]; ITT population, first week, 8 or 12 mg SC QOD): 62.9% | number of rescue-free laxations within 24 hour post dosing per week ([3]; Week 1): 4.9 | number of total laxations within 24 hour post dosing per week ([3]; Week 1): 4.9 | number of rescue-free laxations within 24 hour post dosing per week ([3]; Week 2): 3.2 | number of total laxations within 24 hour post dosing per week ([3]; Week 2): 3.2 | improvement in the stool symptoms domain of the PAC-SYM ([3]; compared with the placebo group, p=0.0920): more pronounced | subjects who used enemas ([3]; double-blind period): 17% | subjects who used rescue laxatives ([3]; double-blind period): 27% | subjects who required manual disimpaction ([3]; double-blind period, either group): < 5% | opioid use ([3]; effect of MNTX administration): not affected | efficacy versus placebo for the primary and all secondary efficacy endpoints ([3]; fixed doses 8 mg or 12 mg SC QOD): statistically superior to placebo | median time to first rescue-free laxation after the first dose ([3]; in vivo): 0.8 h | subjects with rescue-free laxation within 4 hours after at least 4 of the maximum 7 doses ([3]; in vivo): 62.2% | subjects with rescue-free laxation within 4 hours of the first dose ([3]; in vivo): 69.8%

— patent US20210121456A1, “USE OF METHYLNALTREXONE TO ATTENUATE TUMOR PROGRESSION” (Salix Pharmaceuticals, Inc., priority 2014, published 2021)
